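Cultured in 96-well plates, cells were exposed to test compound for 48 hours across five concentrations. Abbreviation: GI50, concentration required for 50% inhibition of growth.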 The source made the active and inactive calls. No stated cut-off is given here; in the data, active = GI50 up to about 1.1 µM and inactive = higher.
Experiments:
Experiment in all cases: NCI tumour cell line growth inhibition, 48 h
NCI-H522 = system: NCI-H522
SF-295 = system: SF-295
UACC-62 = system: UACC-62
HCT-116 = system: HCT-116
M19-MEL = system: M19-MEL
SR = system: SR
SK-MEL-2 = system: SK-MEL-2
RXF 393 = system: RXF 393
Malme-3M = system: Malme-3M
SF-539 = system: SF-539
HL-60 = system: HL-60
CAKI-1 = system: CAKI-1
M14 = system: M14
K562 = system: K562
HOP-92 = system: HOP-92
MDA-MB-231 = system: MDA-MB-231
MDA-MB-435 = system: MDA-MB-435
MDA-N = system: MDA-N
T47D = system: T47D
PC-3 = system: PC-3

| SMILES | GI50 (NCI-H522) | GI50 (SF-295) | GI50 (UACC-62) | GI50 (HCT-116) | GI50 (M19-MEL) | GI50 (SR) | GI50 (SK-MEL-2) | GI50 (RXF 393) | GI50 (Malme-3M) | GI50 (SF-539) | GI50 (HL-60) | GI50 (CAKI-1) | GI50 (M14) | GI50 (K562) | GI50 (HOP-92) | GI50 (MDA-MB-231) | GI50 (MDA-MB-435) | GI50 (MDA-N) | GI50 (T47D) | GI50 (PC-3) |
| --- | --- | --- | --- | --- | --- | --- | --- | --- | --- | --- | --- | --- | --- | --- | --- | --- | --- | --- | --- | --- |
| COc1cc(C(C)O)c[n+](CCc2c[nH]c3ccccc23)c1 (centres undefined) | 83.9 µM (inactive) | > 100 µM (inactive) | > 100 µM (inactive) | > 100 µM (inactive) | > 100 µM (inactive) | > 100 µM (inactive) | > 100 µM (inactive) | > 100 µM (inactive) | > 100 µM (inactive) | > 100 µM (inactive) | > 100 µM (inactive) | > 100 µM (inactive) | > 100 µM (inactive) | > 100 µM (inactive) |  |  |  |  |  |  |
| Cn1c(=O)c(C(=O)NC(=O)OCc2ccccc2)cn(CCSCCOC(=O)NCCCCCCNC(=O)OCCSCCn2cc(C(=O)NC(=O)OCc3ccccc3)c(=O)n(C)c2=O)c1=O | > 100 µM (inactive) |  | > 100 µM (inactive) | > 100 µM (inactive) | > 100 µM (inactive) |  | > 100 µM (inactive) | 33.7 µM (inactive) | > 100 µM (inactive) | 32.5 µM (inactive) | > 100 µM (inactive) |  | > 100 µM (inactive) | > 100 µM (inactive) | 23.2 µM (inactive) |  |  |  |  |  |
| COc1cc(/C=C(\NC(=O)c2ccccc2)c2nc3ccc4c(c3[nH]2)C(=O)c2ccccc2C4=O)cc(OC)c1OC | 7.24 µM (inactive) | 55.7 µM (inactive) | 38.1 µM (inactive) | 23.1 µM (inactive) | > 100 µM (inactive) |  | 50.5 µM (inactive) | 22.8 µM (inactive) | > 100 µM (inactive) | 20.1 µM (inactive) |  | 10.1 µM (inactive) | 63.1 µM (inactive) | 28 µM (inactive) | 25.4 µM (inactive) |  |  |  |  |  |
| OC1CCCCCCCCCCC1SCCCCl (centres undefined) | > 100 µM (inactive) | > 100 µM (inactive) | > 100 µM (inactive) | > 100 µM (inactive) |  | > 100 µM (inactive) | > 100 µM (inactive) | > 100 µM (inactive) | 81.8 µM (inactive) | > 100 µM (inactive) | > 100 µM (inactive) | > 100 µM (inactive) | > 100 µM (inactive) | > 100 µM (inactive) | > 100 µM (inactive) | > 100 µM (inactive) | > 100 µM (inactive) | > 100 µM (inactive) | > 100 µM (inactive) | > 100 µM (inactive) |
| O=C(NO)c1ccc([N+](=O)[O-])cc1 | 21 µM (inactive) | 42.1 µM (inactive) | 19.7 µM (inactive) |  | 52.2 µM (inactive) |  | 32.1 µM (inactive) | 18.3 µM (inactive) | 26.9 µM (inactive) | 24.5 µM (inactive) | 20.7 µM (inactive) | 61 µM (inactive) | 40.9 µM (inactive) | 31 µM (inactive) |  |  |  |  |  |  |
| COc1ccc(/C=C2\C(=O)N(C(=O)c3ccc(NC(C)=O)cc3)N=C2C)cc1 | > 100 µM (inactive) | > 100 µM (inactive) |  | > 100 µM (inactive) | > 100 µM (inactive) | > 100 µM (inactive) | > 100 µM (inactive) |  | > 100 µM (inactive) | > 100 µM (inactive) | > 100 µM (inactive) | > 100 µM (inactive) | > 100 µM (inactive) | > 100 µM (inactive) |  |  |  |  |  |  |
| O=C1C=C(Nc2ccc(S(=O)(=O)Nc3nccs3)cc2)c2ccccc2C1=O | 38.5 µM (inactive) | 18 µM (inactive) | 24.5 µM (inactive) | 34.5 µM (inactive) |  | 39.5 µM (inactive) | 28.6 µM (inactive) | > 100 µM (inactive) | 21 µM (inactive) | 21.1 µM (inactive) | 24.7 µM (inactive) | 26.8 µM (inactive) | 21.9 µM (inactive) | 12.1 µM (inactive) | 34.5 µM (inactive) | 26.5 µM (inactive) | 17.7 µM (inactive) | 18.8 µM (inactive) | 69.5 µM (inactive) | 71.4 µM (inactive) |
| COC(=O)c1c(OC(C)=O)ccc2c1c1c(OC(C)=O)c3ccccc3c(OC(C)=O)c1n2C | 12.9 µM (inactive) | 21.2 µM (inactive) | 17.9 µM (inactive) | 19.1 µM (inactive) |  | 14.5 µM (inactive) | 17.3 µM (inactive) | 29.5 µM (inactive) | 37.7 µM (inactive) | 20.7 µM (inactive) | 22.1 µM (inactive) | 17.8 µM (inactive) | 27.6 µM (inactive) | 19.2 µM (inactive) | 4.39 µM (inactive) | 31.5 µM (inactive) | 37.8 µM (inactive) | 32.2 µM (inactive) | 12.3 µM (inactive) | 30.4 µM (inactive) |
| O=C1/C(=C/c2cccnc2)C(n2cccc2)c2c(Br)sc(Br)c21 (centres undefined) | 6.07 µM (inactive) | 15.2 µM (inactive) | 2 µM (inactive) | 2.26 µM (inactive) |  | 1.81 µM (inactive) | 2.26 µM (inactive) | 2.4 µM (inactive) | 3.01 µM (inactive) | 4.26 µM (inactive) | 1.83 µM (inactive) | 2.59 µM (inactive) | 2.15 µM (inactive) | 2.17 µM (inactive) | 2.01 µM (inactive) | 1.8 µM (inactive) | 1.73 µM (inactive) | 2.05 µM (inactive) | 2.82 µM (inactive) | 2.14 µM (inactive) |
| Cn1nc(-c2ccccc2)c2c(/C=C/c3ccc(Cl)cc3)onc2c1=O | 13.3 µM (inactive) | 27.4 µM (inactive) | 35.8 µM (inactive) | 11.1 µM (inactive) | 89.9 µM (inactive) |  |  | 39.8 µM (inactive) |  | 22.6 µM (inactive) |  | > 10 µM (inactive) | > 100 µM (inactive) | 40.8 µM (inactive) | 21.7 µM (inactive) |  |  |  |  |  |
| COC(=O)c1ccc([N+](=O)[O-])c(O)c1 | > 100 µM (inactive) | > 100 µM (inactive) | > 100 µM (inactive) | > 100 µM (inactive) |  | > 100 µM (inactive) | > 100 µM (inactive) | > 100 µM (inactive) | > 100 µM (inactive) | > 100 µM (inactive) | > 100 µM (inactive) | > 100 µM (inactive) | > 100 µM (inactive) | > 100 µM (inactive) | > 100 µM (inactive) | > 100 µM (inactive) | 8.55 µM (inactive) | > 100 µM (inactive) | > 100 µM (inactive) | > 100 µM (inactive) |
| C/C(=N\NC(=O)CC(=O)N(C(=O)c1ccc(Cl)cc1)c1ccc(C)cc1)c1ccccc1O | 36.6 µM (inactive) | 7.33 µM (inactive) | > 100 µM (inactive) | 62.2 µM (inactive) | > 100 µM (inactive) |  | > 100 µM (inactive) | 18.3 µM (inactive) | > 100 µM (inactive) | 43.4 µM (inactive) |  | 64 µM (inactive) | 81.7 µM (inactive) | > 100 µM (inactive) |  |  |  |  |  |  |
| CC(=O)c1c(C(F)(F)F)[n+]([O-])c2cc(Cl)c(Cl)cc2[n+]1[O-] | 0.165 µM (active) | 0.719 µM (active) | 1.26 µM (inactive) | 0.249 µM (active) |  | 0.0196 µM (active) | 1.19 µM (inactive) | 0.895 µM (active) | 0.685 µM (active) | 1.15 µM (inactive) | 0.338 µM (active) | 1.44 µM (inactive) | 1.21 µM (inactive) | 0.977 µM (active) | 0.195 µM (active) | 1.3 µM (inactive) | 1.3 µM (inactive) | 1.12 µM (inactive) | 0.338 µM (active) | 1.31 µM (inactive) |
| CC1=NN(C(=O)Cc2ccccc2)C(=O)/C1=C\c1cccc(O)c1 | > 100 µM (inactive) | > 100 µM (inactive) |  | > 100 µM (inactive) | > 100 µM (inactive) | > 100 µM (inactive) | > 100 µM (inactive) |  | > 100 µM (inactive) | > 100 µM (inactive) | > 100 µM (inactive) | > 100 µM (inactive) | > 100 µM (inactive) | > 100 µM (inactive) |  |  |  |  |  |  |
| CCC(=O)NC(NNS(=O)(=O)c1ccc(C)cc1)(C(F)(F)F)C(F)(F)F | 30.7 µM (inactive) | > 100 µM (inactive) | 38.9 µM (inactive) | 64.3 µM (inactive) |  | 39.4 µM (inactive) | > 100 µM (inactive) | 23.2 µM (inactive) | 59.4 µM (inactive) | 54 µM (inactive) | 46.6 µM (inactive) | > 100 µM (inactive) | 37.6 µM (inactive) | 30.6 µM (inactive) | 37.6 µM (inactive) | 30.8 µM (inactive) | 18.7 µM (inactive) | 18.5 µM (inactive) | 96.8 µM (inactive) | 55.1 µM (inactive) |
| C#CCN(Cc1ccc2nc(OC)c(OC)nc2c1)c1cc(OC)c(OC)c(OC)c1 | 9.44 µM (inactive) | 16.3 µM (inactive) | 18.9 µM (inactive) | 16.7 µM (inactive) |  | 26.5 µM (inactive) | 23.1 µM (inactive) | 14.9 µM (inactive) | 23 µM (inactive) | 18.5 µM (inactive) | 12.7 µM (inactive) | 24.2 µM (inactive) | 22.1 µM (inactive) | 3.98 µM (inactive) | 7.43 µM (inactive) | 12.1 µM (inactive) | 6.59 µM (inactive) | 7.31 µM (inactive) | 18.4 µM (inactive) | 26.1 µM (inactive) |
| O=C(O)C1C2C=CC(O2)C1C(=O)NCc1ccccn1 (centres undefined) | > 100 µM (inactive) | > 100 µM (inactive) | > 100 µM (inactive) | > 100 µM (inactive) |  | > 100 µM (inactive) | > 100 µM (inactive) | 44.5 µM (inactive) | > 100 µM (inactive) | > 100 µM (inactive) | > 100 µM (inactive) | > 100 µM (inactive) | > 100 µM (inactive) | > 100 µM (inactive) | > 100 µM (inactive) | > 100 µM (inactive) | > 100 µM (inactive) | > 100 µM (inactive) | > 100 µM (inactive) | > 100 µM (inactive) |

From ChEMBL document CHEMBL1201862, “PubChem BioAssay data set” (2004)
